According to patent publication US20250034136A1 (Nimbus Wadjet, Inc., priority 2023, published 2025):

Key:
[1] = target: WRN (BV08), human Werner helicase (Uniprot Q14191, amino acids 517-1235 with L1074F point mutation) (Homo sapiens (Human), UniProt Q14191, L1074F); experiment: WRN (BV08) ADP-Glo assay; format: biochemical; conditions: class symbols A-E, read-out: ADP-Glo_hWRN_IC50
[2] = system: p21 induction in HCT116 cells; experiment: p21 induction in HCT116 cells; format: cell-based; conditions: Homo sapiens, HCT-116, 24 h, HCT116 cells, 24 h compound incubation; read-out: P21_EC50
In short: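 HCT116 cells, 2,000/well, treated 24 h at 37 °C with 11-point compound dilutions in duplicate. Fixed, then immunostained for p21 and GAPDH and read by near-IR imaging at 800/700 nm. Normalized to DMSO (low) and reference WRN inhibitor (high) controls; EC50 from non-linear regression.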

Sequence of WRN (BV08), human Werner helicase (Uniprot Q14191, amino acids 517-1235 with L1074F point mutation) (Q14191 other isoform, or with tags, fused parts or gaps L1074F (already in the parent)): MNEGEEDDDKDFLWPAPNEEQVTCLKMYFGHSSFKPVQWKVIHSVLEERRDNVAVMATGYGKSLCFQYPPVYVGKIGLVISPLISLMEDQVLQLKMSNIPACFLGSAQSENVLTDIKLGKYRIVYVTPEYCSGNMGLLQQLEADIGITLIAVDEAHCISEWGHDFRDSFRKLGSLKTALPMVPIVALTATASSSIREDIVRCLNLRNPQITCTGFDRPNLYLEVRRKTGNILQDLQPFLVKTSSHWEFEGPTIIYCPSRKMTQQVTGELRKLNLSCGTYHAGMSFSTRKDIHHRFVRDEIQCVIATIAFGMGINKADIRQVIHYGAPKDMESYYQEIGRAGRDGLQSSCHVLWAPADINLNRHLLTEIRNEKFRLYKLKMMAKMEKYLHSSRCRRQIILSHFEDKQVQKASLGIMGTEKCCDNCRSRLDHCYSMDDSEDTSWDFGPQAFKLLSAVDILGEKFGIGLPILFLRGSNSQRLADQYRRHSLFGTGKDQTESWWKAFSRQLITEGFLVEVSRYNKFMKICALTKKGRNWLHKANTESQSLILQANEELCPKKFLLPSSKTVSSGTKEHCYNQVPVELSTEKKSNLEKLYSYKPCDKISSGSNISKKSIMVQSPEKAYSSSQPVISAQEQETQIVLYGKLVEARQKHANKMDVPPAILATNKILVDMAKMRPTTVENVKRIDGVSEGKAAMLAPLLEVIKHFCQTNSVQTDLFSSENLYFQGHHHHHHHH

Row | Compound | IC50 [1] | EC50 [2]
1 | CCc1c(N2CCN(C(=O)c3ncnc(C)c3O)CC2)c(=O)c2nc(N3CCC[C@H]3C)cnc2n1CC(=O)Nc1ccc(C(F)(F)F)cc1Cl [I-150, N-[2-chloro-4-(trifluoromethyl)phenyl]-2-{6-ethyl-7-[4-(5-hydroxy-6-methylpyrimidine-4-carbonyl)piperazin-1-yl]-2-[(2R)-2-methylpyrrolidin-1-yl]-8-oxo-5H,8H-pyrido[2,3-b]pyrazin-5-yl}acetamide] | 5 to 50 nM | 500 to 2000 nM
2 | CCc1c(N2CCN(C(=O)c3ncnc(C)c3O)CC2)c(=O)c2nc(N3CC(O)C3)cnc2n1CC(=O)Nc1ccc(C(F)(F)F)cc1Cl [I-45, N-(2-chloro-4-(trifluoromethyl)phenyl)-2-(6-ethyl-7-(4-(5-hydroxy-6-methylpyrimidine-4-carbonyl)piperazin-1-yl)-2-(3-hydroxyazetidin-1-yl)-8-oxopyrido[2,3-b]pyrazin-5(8H)-yl)acetamide] | 5 to 50 nM | > 5000 nM
3 | CCc1c(N2CCN(C(=O)c3c(OC)ncc(C)c3O)[C@H]3CC[C@@H]32)c(=O)c2nc(C)c(C)nc2n1CC(=O)Nc1ccc(C(F)(F)F)cc1Cl [I-127, N-[2-chloro-4-(trifluoromethyl)phenyl]-2-{6-ethyl-7-[(1S,6S)-5-(4-hydroxy-2-methoxy-5-methylpyridine-3-carbonyl)-2,5-diazabicyclo[4.2.0]octan-2-yl]-2,3-dimethyl-8-oxo-5H,8H-pyrido[2,3-b]pyrazin-5-yl}acetamide] | 5 to 50 nM | < 500 nM
4 | CCc1c(N2CCN(C(=O)c3ncnc(C)c3O)[C@H]3CC[C@@H]32)c(=O)c2nc(N3CCNCC3)cnc2n1CC(=O)Nc1ccc(C(F)(F)F)cc1Cl [I-263, N-[2-chloro-4-(trifluoromethyl)phenyl]-2-{6-ethyl-7-[(1S,6S)-5-(5-hydroxy-6-methylpyrimidine-4-carbonyl)-2,5-diazabicyclo[4.2.0]octan-2-yl]-8-oxo-2-(piperazin-1-yl)-5H,8H-pyrido[2,3-b]pyrazin-5-yl}acetamide] | 5 to 50 nM | > 5000 nM
5 | CCc1c(N2CCN(C(=O)c3ncnc(C)c3O)CC2)c(=O)c2nc(OC3CCC3)cnc2n1CC(=O)Nc1ccc(C(F)(F)F)cc1Cl [I-141, N-[2-chloro-4-(trifluoromethyl)phenyl]-2-{2-cyclobutoxy-6-ethyl-7-[4-(5-hydroxy-6-methylpyrimidine-4-carbonyl)piperazin-1-yl]-8-oxo-5H,8H-pyrido[2,3-b]pyrazin-5-yl}acetamide] | 5 to 50 nM | > 5000 nM
6 | CCc1c(N2CCN(C(=O)c3ncnc(C)c3O)[C@H]3CC[C@@H]32)c(=O)c2nc(OC)cnc2n1CC(=O)Nc1ccc(C(F)(F)F)cc1Cl [I-182, N-[2-chloro-4-(trifluoromethyl)phenyl]-2-{6-ethyl-7-[(1S,6S)-5-(5-hydroxy-6-methylpyrimidine-4-carbonyl)-2,5-diazabicyclo[4.2.0]octan-2-yl]-2-methoxy-8-oxo-5H,8H-pyrido[2,3-b]pyrazin-5-yl} acetamide] | ≤ 5 nM | < 500 nM
7 | CCc1c(N2CCN(C(=O)c3ncnc(C)c3O)[C@H]3CC(F)(F)C[C@@H]32)c(=O)c2nc(N(C)C)cnc2n1CC(=O)Nc1ccc(C(F)(F)F)cc1Cl (racemic) [I-291, rac-N-(2-chloro-4-(trifluoromethyl)phenyl)-2-(7-(6,6-difluoro-4-(5-hydroxy-6-methylpyrimidine-4-carbonyl)octahydro-1H-cyclopenta[b]pyrazin-1-yl)-2-(dimethylamino)-6-ethyl-8-oxopyrido[2,3-b]pyrazin-5(8H)-yl)acetamide] | 5 to 50 nM | 2000 to 5000 nM
8 | CCc1c(N2CCN(C(=O)c3ncnc(C)c3O)CC2)c(=O)c2nc(N3CCC34CCC4)cnc2n1CC(=O)Nc1ccc(C(F)(F)F)cc1Cl [I-170, 2-(2-{1-azaspiro[3.3]heptan-1-yl}-6-ethyl-7-[4-(5-hydroxy-6-methylpyrimidine-4-carbonyl)piperazin-1-yl]-8-oxo-5H,8H-pyrido[2,3-b]pyrazin-5-yl)-N-[2-chloro-4-(trifluoromethyl)phenyl]acetamide] | 5 to 50 nM | < 500 nM
9 | CCc1c(N2CCN(C(=O)c3ncnc(C)c3O)[C@H]3CC(F)(F)C[C@@H]32)c(=O)c2nc(N(C)C)cnc2n1CC(=O)Nc1ccc(C(F)(F)F)cc1Cl (single isomer, unassigned) [I-296, N-(2-chloro-4-(trifluoromethyl)phenyl)-2-(7-(6,6-difluoro-4-(5-hydroxy-6-methylpyrimidine-4-carbonyl)octahydro-1H-cyclopenta[b]pyrazin-1-yl)-2-(dimethylamino)-6-ethyl-8-oxopyrido[2,3-b]pyrazin-5(8H)-yl)acetamide] | 5 to 50 nM | 500 to 2000 nM
10 | [2H]C([2H])([2H])Nc1cnc2c(n1)c(=O)c(N1CCN(C(=O)c3ncnc(C)c3O)[C@H]3CC[C@@H]31)c(CC)n2CC(=O)Nc1ccc(C(F)(F)F)cc1Cl [I-226, N-[2-chloro-4-(trifluoromethyl)phenyl]-2-{6-ethyl-7-[(1S,6S)-5-(5-hydroxy-6-methylpyrimidine-4-carbonyl)-2,5-diazabicyclo[4.2.0]octan-2-yl]-2-[(methyl-d3)amino]-8-oxo-5H,8H-pyrido[2,3-b]pyrazin-5-yl}acetamide] | ≤ 5 nM | < 500 nM
11 | CCc1c(N2CCN(C(=O)c3ncnc(C)c3O)CC2)c(=O)c2nc(NC3CC3)cnc2n1CC(=O)Nc1ccc(C(F)(F)F)cc1Cl [I-165, N-[2-chloro-4-(trifluoromethyl)phenyl]-2-[2-(cyclopropylamino)-6-ethyl-7-[4-(5-hydroxy-6-methylpyrimidine-4-carbonyl)piperazin-1-yl]-8-oxo-5H,8H-pyrido[2,3-b]pyrazin-5-yl]acetamide] | 5 to 50 nM | 500 to 2000 nM
12 | CCc1c(N2CCN(C(=O)c3ncnc(C)c3O)CC2)c(=O)c2nc(N(C)C3(C)CC3)cnc2n1CC(=O)Nc1ccc(C(F)(F)F)cc1Cl [I-205, N-[2-chloro-4-(trifluoromethyl)phenyl]-2-{6-ethyl-7-[4-(5-hydroxy-6-methylpyrimidine-4-carbonyl)piperazin-1-yl]-2-[methyl(1-methylcyclopropyl)amino]-8-oxo-5H,8H-pyrido[2,3-b]pyrazin-5-yl}acetamide] | 5 to 50 nM | < 500 nM
13 | CCc1c(N2CCN(C(=O)c3ncnc(C)c3O)CC2)c(=O)c2nc(C(N)=O)cnc2n1CC(=O)Nc1ccc(C(F)(F)F)cc1Cl [I-50, 5-(2-((2-chloro-4-(trifluoromethyl)phenyl)amino)-2-oxoethyl)-6-ethyl-7-(4-(5-hydroxy-6-methylpyrimidine-4-carbonyl)piperazin-1-yl)-8-oxo-5,8-dihydropyrido[2,3-b]pyrazine-2-carboxamide] | 50 to 100 nM | > 5000 nM
14 | CCc1c(N2CCN(C(=O)c3c(O)cnnc3OC)[C@H]3CC[C@@H]32)c(=O)c2nc(N(C)C)cnc2n1CC(=O)Nc1ccc(C(F)(F)F)cc1Cl [I-183, N-[2-chloro-4-(trifluoromethyl)phenyl]-2-[2-(dimethylamino)-6-ethyl-7-[(1S,6S)-5-(5-hydroxy-3-methoxypyridazine-4-carbonyl)-2,5-diazabicyclo[4.2.0]octan-2-yl]-8-oxo-5H,8H-pyrido[2,3-b]pyrazin-5-yl]acetamide] | 5 to 50 nM | > 5000 nM
15 | CCc1c(N2CCN(C(=O)c3ncnc(C)c3O)CC2)c(=O)c2nc(N3CCCCC3)cnc2n1CC(=O)Nc1ccc(C(F)(F)F)cc1Cl [I-42, N-(2-chloro-4-(trifluoromethyl)phenyl)-2-(6-ethyl-7-(4-(5-hydroxy-6-methylpyrimidine-4-carbonyl)piperazin-1-yl)-8-oxo-2-(piperidin-1-yl)pyrido[2,3-b]pyrazin-5(8H)-yl)acetamide] | 5 to 50 nM | 2000 to 5000 nM
16 | CCc1c(N2CCN(C(=O)c3ncnc(C)c3O)CC2)c(=O)c2nc(Br)cnc2n1CC(=O)Nc1ccc(C(F)(F)F)cc1Cl [I-86, 2-(2-bromo-6-ethyl-7-(4-(5-hydroxy-6-methylpyrimidine-4-carbonyl)piperazin-1-yl)-8-oxopyrido[2,3-b]pyrazin-5(8H)-yl)-N-(2-chloro-4-(trifluoromethyl)phenyl)acetamide] | 5 to 50 nM | 2000 to 5000 nM
17 | CCc1c(N2CCN(C(=O)c3ncnc(C)c3O)CC2)c(=O)c2nc(N3CCC4(COC4)C3)cnc2n1CC(=O)Nc1ccc(C(F)(F)F)cc1Cl [I-163, N-[2-chloro-4-(trifluoromethyl)phenyl]-2-{6-ethyl-7-[4-(5-hydroxy-6-methylpyrimidine-4-carbonyl)piperazin-1-yl]-2-{2-oxa-6-azaspiro[3.4]octan-6-yl}-8-oxo-5H,8H-pyrido[2,3-b]pyrazin-5-yl}acetamide] | 5 to 50 nM | > 5000 nM
18 | CCc1c(N2CCN(C(=O)c3c(OC)ncc(OC)c3O)[C@H]3CC[C@@H]32)c(=O)c2nc(N(C)C)cnc2n1CC(=O)Nc1ccc(C(F)(F)F)cc1Cl [I-274] | 5 to 50 nM | < 500 nM
19 | CCc1c(N2CCN(C(=O)c3ncnc(C)c3O)CC2)c(=O)c2nc(/C=C/COC)cnc2n1CC(=O)Nc1ccc(C(F)(F)F)cc1Cl [I-55, (E)-N-(2-chloro-4-(trifluoromethyl)phenyl)-2-(6-ethyl-7-(4-(5-hydroxy-6-methylpyrimidine-4-carbonyl)piperazin-1-yl)-2-(3-methoxyprop-1-en-1-yl)-8-oxopyrido[2,3-b]pyrazin-5(8H)-yl)acetamide] | 5 to 50 nM | 500 to 2000 nM
20 | CCc1c(N2CCN(C(=O)c3ncnc(C)c3O)CC2)c(=O)c2nc(N(C)C)cnc2n1CC(=O)Nc1c(F)cc(C(F)(F)F)cc1F [I-148, N-[2,6-difluoro-4-(trifluoromethyl)phenyl]-2-[2-(dimethylamino)-6-ethyl-7-[4-(5-hydroxy-6-methylpyrimidine-4-carbonyl)piperazin-1-yl]-8-oxo-5H,8H-pyrido[2,3-b]pyrazin-5-yl]acetamide] | 5 to 50 nM | > 5000 nM
